Experimental data: US12630527B2, “Broad spectrum anti-cancer compounds” (The Regents of the University of California, priority 2019, dated 2026)

Assays:
[1] = target: T1, ALKBH5 (Homo sapiens, UniProt Q6P6C2); test: Fluorescence enzymatic inhibition assay (m6A7-Broccoli / DFHBI-1T), ALKBH5; assay type: biochemical; settings: for inhibition of ALKBH5 at the highest concentration measured: highest concentration 40 μM; for IC50: Permeability Data and IC50 tables the 33rd table/the 34th table, unit inferred
T1 construct: SUMO (N); His10 (N); made in house; host or cells: E. coli BL21
T1 sequence (Q6P6C2 whole entry): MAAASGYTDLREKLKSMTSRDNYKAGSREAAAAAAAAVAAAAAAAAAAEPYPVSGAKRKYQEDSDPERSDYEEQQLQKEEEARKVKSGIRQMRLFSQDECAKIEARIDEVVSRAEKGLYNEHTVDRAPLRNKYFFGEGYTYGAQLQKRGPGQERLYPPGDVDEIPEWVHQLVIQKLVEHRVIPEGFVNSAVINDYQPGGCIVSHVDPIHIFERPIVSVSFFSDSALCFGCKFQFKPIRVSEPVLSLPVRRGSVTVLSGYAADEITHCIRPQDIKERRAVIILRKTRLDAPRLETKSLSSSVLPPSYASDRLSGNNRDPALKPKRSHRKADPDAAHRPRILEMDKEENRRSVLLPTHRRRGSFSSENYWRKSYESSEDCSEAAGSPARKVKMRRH
Description: (§1) E. coli BL21 competent cells (New England Biolabs) were transformed with pET28-SUMO-His10-FTO plasmid (a generous gift from the Jaffrey lab) by heat shock and spread on a LB Kanamycin agar plate, then incubated overnight at 37° C. 2-3 colonies were picked and transferred to 5 mL of LB media treated with kanamycin (0.5 mg mL^−1 final concentration), then grown overnight shaking at 37° C. The overnight culture was then transferred to 2 L of LB kanamycin media and incubated at 37° C. until OD 0.8. The culture was cooled at 4° C. for 20 mins and induced with 0.5 mM isopropyl β-D-1-thiogalactopyranoside (IPTG), then grown shaken at 16° C. Cell pellets were collected by centrifugation (5,000 g for 10 min at 4° C.) and the supernatant was discarded. The pellets were resuspended in B-PER Bacterial Protein Extraction Reagent (6 mL per gram) with DNase 1 (5 U per mL, RNase-free) and incubated at 4° C. for 1 hour. The suspension was centrifuged at 10,000 g for 20 min and the supernatant was transferred to a Talon Metal Affinity Resin column that had been pre-equilibrized with binding buffer (50 mM NaH2PO4 pH 7.2, 300 mM NaCl, 20 mM imidazole, 1 mM β-mercaptoethanol in RNase-free water). […] The eluant was combined and transferred to a Slyde-A-Lyzer Dialysis Cassette (20,000 MWCO, Thermo Scientific) and dialyzed overnight at 4° C. against dialysis buffer (50 mM Tris-HCl pH 7.4, 100 mM NaCl, 5 mM B-mercaptoethanol, 5% (v/v) glycerol in RNase-free water). […] ALKBH5 was expressed and purified from pET28-SUMO-His10-ALKBH5 plasmid by the same procedure described above.
(§2) Inhibitors were added in concentrations ranging from 0.008-40 μM; all inhibitors were dissolved in DMSO and added to a final concentration of 0.2% DMSO. […] After incubation at room temperature for 2 hours, the plates were left at 4° C. overnight (16 hours) to allow DFHBI-1T to bind to A7-Broccoli RNA. […] Sigmoidal dose-response curves were fitted in GraphPad Prism 6. All assays were performed in triplicate, with additional repetitions added as necessary.

[2] = system: MOLT-4; test: High Throughput Screen for growth inhibition, MOLT-4; assay type: cell-based; settings: MOLT-4, Leukemia; 3 days; unit not given
Description: (§3) The High Throughput Screen method is described below. The endpoint readout of this assay is based upon quantitation of ATP as an indicator of viable cells.
(§4) Cell lines that have been preserved in liquid nitrogen are thawed and expanded in growth media (see Table 1-3). Once cells have reached expected doubling times, screening begins. Cells are seeded in growth media in black 384-well tissue culture treated plates at 500-1500 cells per well (as noted in Analyzer). Cells are equilibrated in assay plates via centrifugation and placed at 37° C. 5% CO2 for twenty-four hours before treatment. […] Assay plates are incubated with compound for 3 days and are then analysed using CellTiter-Glo 2.0. All data points are collected via automated processes and are subject to quality control and analysed using Horizon's software.
(§5) Growth Inhibition (GI) is utilized as a measure of cell growth. The GI percentages are calculated by applying the following test and equation: If T<V_0: 100*(1−(T−V_0)/V_0) If T≥V_0: 100*(1−(T−V_0)/(V−V_0)) where T is the signal measure for a test article, V is the untreated/vehicle-treated control measure, and Vo is the untreated/vehicle control measure at time zero (also colloquially referred as T0 plates). This formula is derived from the Growth Inhibition calculation used in the National Cancer Institute's NCI-60 high throughput screen. For the purposes of this report, all data analysis was performed in Growth Inhibition (except where noted).
(§6) A GI of 100% represents complete growth inhibition (cytostasis) and in this case cells treated with compound for 3 days would have the same endpoint reading as TO control cells. A GI of 200% represents complete death (cytotoxicity) of all cells in the culture well and in this case the T reading at 3 days will be lower than the TO control (values near or at zero).
(§7) Horizon also provides Inhibition as a measure of cell viability. Inhibition levels of 0% represent no inhibition of cell growth by treatment. Inhibition of 100% represents no doubling of cell numbers during the treatment window. Both cytostatic and cytotoxic treatments can yield an Inhibition percentage of 100%. Inhibition percentage is calculated as the following: I=1−T/U where T is the treated and U is the untreated/vehicle control.

[3] = system: TS576 glioblastoma stem cells; test: Tumorosphere (neurosphere) formation assay, TS576; assay type: cell-based, human; settings: TS576, 30 μM, 2 days, vs vehicle control
Description: To understand the effects of our FTO inhibitors on the self-renewal properties of GSCs, tumorospheres cultured from the patient-derived GSC line TS576 were treated with 30 μM of FTO-04, FTO-10, FTO-11, or FTO-12 (FIG. 29A-29B; cell line gifted from the Furnari lab).^45, 46 The GSCs were cultured in sphere-forming assays for 24 hours, then treated with either inhibitors or DMSO control for 2 days. The size of the tumorospheres was calculated using ImageJ.
Early passaged GSCs were used to understand the efficacy of ALK-04 on the self-renewal capacity of GSCs by tumorsphere-formation assay as described earlier^10, 11. In brief, GSCs were seeded at 4×10^4 cells in 24 well plate and cultured for 3 days followed by treatment with ALK-04 inhibitors at 20 μM daily for 3 days. After 3 days of treatment the images of the tumorospheres were imaged with phase contrast microscope and size was measured with Image J, to understand the effects of drugs on the self-renewal of GSCs on sphere formation. This process was also repeated for healthy neural stem cells (hNSCs) treated daily with 20 μM ALK-04 for three days to assess the therapeutic ratio.

[4] = system: Kasumi-1; test: High Throughput Screen for growth inhibition, Kasumi-1; assay type: cell-based; settings: Kasumi-1, Leukemia; 3 days; unit not given
Description: as §3, §4
as §5, with “For the purposes of this report, all data analysis was performed in Growth Inhibition (except where noted).” left out

[5] = system: LUDLU-1; test: High Throughput Screen for growth inhibition, LUDLU-1; assay type: cell-based; settings: LUDLU-1, LUSC; 3 days; unit not given
Description: as §3, §4, §5, §6
(§8) Horizon also provides Inhibition as a measure of cell viability. Inhibition levels of 0% represent no inhibition of cell growth by treatment. […] Inhibition percentage is calculated as the following: I=1−T/U where T is the treated and U is the untreated/vehicle control.

[6] = system: AGS; test: High Throughput Screen for growth inhibition, AGS; assay type: cell-based; settings: Gastric, 3 days, unit not given
Description: as §3, §4, §5, §6, §7

[7] = system: HCT-116; test: High Throughput Screen for growth inhibition, HCT-116; assay type: cell-based; settings: HCT-116, Colon; 3 days; unit not given
Description: as §3, §4
as §5, with “For the purposes of this report, all data analysis was performed in Growth Inhibition (except where noted).” left out

[8] = system: SW480; test: High Throughput Screen for growth inhibition, SW480; assay type: cell-based; settings: SW480, Colon; 3 days; unit not given
Description: as §3, §4
as §5, with “For the purposes of this report, all data analysis was performed in Growth Inhibition (except where noted).” left out

[9] = system: BICR16; test: High Throughput Screen for growth inhibition, BICR16; assay type: cell-based; settings: BICR16, Head and Neck; 3 days; unit not given
Description: as §3, §4, §5, §6, §8

[10] = target: T2, FTO (Homo sapiens, UniProt Q9C0B1); test: Fluorescence enzymatic inhibition assay (m6A7-Broccoli / DFHBI-1T), FTO; assay type: biochemical; settings: for precipitation in assay buffer: dose response could not be determined
T2 construct: SUMO (N); His10 (N); made in house; host or cells: E. coli BL21
T2 sequence (Q9C0B1 whole entry): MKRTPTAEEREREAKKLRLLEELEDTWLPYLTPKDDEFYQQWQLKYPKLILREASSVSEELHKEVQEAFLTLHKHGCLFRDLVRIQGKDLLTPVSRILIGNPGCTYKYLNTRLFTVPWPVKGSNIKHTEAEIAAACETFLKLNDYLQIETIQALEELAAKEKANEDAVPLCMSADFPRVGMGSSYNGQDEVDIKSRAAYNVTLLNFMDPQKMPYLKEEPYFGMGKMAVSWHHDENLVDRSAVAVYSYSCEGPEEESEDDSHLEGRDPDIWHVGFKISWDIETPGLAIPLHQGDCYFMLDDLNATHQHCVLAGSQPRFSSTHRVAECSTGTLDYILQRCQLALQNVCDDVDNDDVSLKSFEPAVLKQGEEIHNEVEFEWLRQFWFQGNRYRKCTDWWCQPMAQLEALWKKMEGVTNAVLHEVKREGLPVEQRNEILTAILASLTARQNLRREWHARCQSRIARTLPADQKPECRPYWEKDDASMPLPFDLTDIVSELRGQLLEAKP
Description: In order to determine their efficacy as FTO inhibitors, the compounds were screened by a fluorescence enzymatic inhibition assay developed previously by the Jaffrey lab.^44 Briefly, a nonfluorescent methylated RNA substrate termed “m6A7-Broccoli” is incubated with FTO in the presence of 2-oxoglutarate (300 μM), (NH4)2Fe(SO4)2·6H2O (300 μM), and L-ascorbate (2 mM) for 2 hours at room temperature in reaction buffer (50 mM NaHEPES, pH 6).
as §1, §2

[11] = QikProp calculation of clogP and membrane permeability (Caco-2, MDCK models); settings: predicted permeability models; fold
Description: In order to identify chemically distinct inhibitors of FTO, we used a combination of structure-based drug design and molecular docking with the Schrödinger software suite to target the MA binding site of FTO. […] Interactions with these four residues were considered highly favorable. […] Docking poses for FTO-1-20 are in the supporting information (FIGS. 32-51). Hits showing promising docking scores (absolute value ≥7) were also analyzed by QikProp to assess their physicochemical properties. As existing FTO inhibitors fail to progress to clinical applications due to poor pharmacokinetic profiles, it was important to filter our screen for compounds with more favorable physicochemical properties. […] These criteria were selected due to multiple studies indicating compounds with low molecular weight and moderate lipophilicity are more likely to show favorable adsorption and clearance rates, and less toxicity due to target promiscuity. As such, controlling the physicochemical properties of inhibitors during the initial screening stages should select for better leads for future optimization and development. Based on these criteria, the top 20 inhibitors were selected for synthesis (Table S1). These parameters were also calculated for MA, FB23-2 and its precursor FB23 (Table S2). […]

[12] = target: T2, FTO; settings: reported (ref. 36); stated as selectivity against ALKBH5; cited from earlier work
[13] = system: MONOMAC6 and NB4 cells; settings: fold, Huang et. al; cited from earlier work
[14] = system: HEC-50B; test: High Throughput Screen for growth inhibition, HEC-50B; assay type: cell-based; settings: Endometrial (uterine), 3 days, unit not given
Description: as §3, §4
as §5, with “For the purposes of this report, all data analysis was performed in Growth Inhibition (except where noted).” left out

[15] = system: SUM159PT; test: High Throughput Screen for growth inhibition, SUM159PT; assay type: cell-based; settings: Breast, 3 days, unit not given
Description: as §3, §4
as §5, with “For the purposes of this report, all data analysis was performed in Growth Inhibition (except where noted).” left out

## Cc1ccc2cc(-c3cncnc3)ccc2n1 [FTO-7, 2-methyl-6-(pyrimidin-5-yl)quinoline]
[1]
  inhibition of ALKBH5 at the highest concentration measured: no measurable inhibition

## COC(=O)C1COC(c2ccccc2OC)N1 (centres unmarked) [ALK-15]
[1]
  IC50: 18.2 ± 2.3 µM

## FC1CCN(C2(CNCc3ccc(-c4ccccc4Cl)o3)COC2)C1 (centres unmarked) [TR-FTO-49 N]
[2]
  Growth Inhibition (GI) Values: 27.521

## Nc1ncc(-c2ccc3cc(O)ccc3c2)cn1 [FTO-10, 6-(2-aminopyrimidin-5-yl)naphthalen-2-ol]
[3]
  size of tumorospheres: significant reduction in size of the tumorospheres

## Clc1ccccc1-c1ccc(CNCC2(N3CCCC3)COC2)o1 [TR-FTO-43 N]
[4]
  Growth Inhibition (GI) Values: 18.136
[2]
  Growth Inhibition (GI) Values: 24.595
[5]
  Growth Inhibition (GI) Values: 28.561
[6]
  Growth Inhibition (GI) Values: 21.005
[7]
  Growth Inhibition (GI) Values: 31.451
[8]
  Growth Inhibition (GI) Values: 28.499
[9]
  Growth Inhibition (GI) Values: 25.212

## COCCNc1ncc(-c2ccc(OCc3ccccc3)cc2)cn1 [FTO-18, 5-(4-(benzyloxy)phenyl)-N-(2-methoxyethyl)pyrimidin-2-amine]
[1]
  inhibition of ALKBH5 at the highest concentration measured: no measurable inhibition

## COc1ccc2cc(-c3cncnc3)ccc2c1 [FTO-5, 5-(6-methoxynaphthalen-2-yl)pyrimidine]
[1]
  inhibition of ALKBH5 at the highest concentration measured: no measurable inhibition

## COc1ncc(-c2cccc(OCc3ccccc3)c2)cn1 [FTO-3, 5-(3-(benzyloxy)phenyl)-2-methoxypyrimidine]
[10]
  precipitation in assay buffer: significant precipitation in assay buffer

## COc1ncc(-c2ccc3nc(C)ccc3c2)cn1 [FTO-11, 6-(2-methoxypyrimidin-5-yl)-2-methylquinoline]
[3]
  size of tumorospheres: significant reduction in size of the tumorospheres

## Nc1ncc(-c2cccc(Nc3ccccc3)c2)cn1 [FTO-9, 5-(3-(phenylamino)phenyl)pyrimidin-2-amine]
[10]; ratio of potency towards FTO and ALKBH5
  preference (selectivity) between FTO and ALKBH5: almost ten times more potent towards ALKBH5

## COCCNc1ncc(-c2ccc3cc(OC)ccc3c2)cn1 [FTO-15, N-(2-methoxyethyl)-5-(6-methoxynaphthalen-2-yl)pyrimidin-2-amine]
[10]
  precipitation in assay buffer: significant precipitation in assay buffer

## COc1ccc2cc(-c3cnc(N)nc3)ccc2c1 [FTO-12, 5-(6-methoxynaphthalen-2-yl)pyrimidin-2-amine]
[1]
  inhibition of ALKBH5 at the highest concentration measured: no measurable inhibition
[3]
  size of tumorospheres: significant reduction in size of the tumorospheres

## Cc1noc(C)c1-c1cc(Cl)c(Nc2ccccc2C(=O)NO)c(Cl)c1 [FB23-2]
[11]
  estimated rate of passive diffusion relative to FB23: ~2.5
[12]
  inhibition of FTO at 50 μM: little to no inhibition
[13]
  cellular concentration relative to FB23: 3-10

## COC(=O)C1COC(c2ccccc2F)N1 (centres unmarked) [ALK-14]
[1]
  IC50: 29.8 ± 2.9 µM

## c1ccc(-c2ccc(CNCC3(N4CCCC4)COC3)s2)cc1 [TR-FTO-38]
[2]
  Growth Inhibition (GI) Values: 24.366
[5]
  Growth Inhibition (GI) Values: 31.952
[6]
  Growth Inhibition (GI) Values: 23.3
[14]
  Growth Inhibition (GI) Values: 14.018
[9]
  Growth Inhibition (GI) Values: 29.832

## c1cncc(CNc2ccc(CNC3CC3)cn2)c1 [TR-YTH-05]
[6]
  Growth Inhibition (GI) Values: 6.35
[15]
  Growth Inhibition (GI) Values: 8.629

## Oc1ccc2cc(-c3cncnc3)ccc2c1 [FTO-1, 6-(pyrimidin-5-yl)naphthalen-2-ol]
[1]
  inhibition of ALKBH5 at the highest concentration measured: no measurable inhibition

## COC(=O)C1COC(c2ccc(OC)cc2)N1 (centres unmarked) [ALK-12]
[1]
  IC50: 16.7 ± 2.6 µM
